The values that follow are results of earlier work, collected in patent US6521593B1, “Methods for inhibiting brain tumor growth” (Childrens Hospital Los Angeles, priority 1999, dated 2003).

This data set relates to C6 and 9L rat glioma xenografts. Conditions: 1 mg/mouse/day; cited from earlier work.

As to Angiostatin, the “growth inhibition of intracranial glioma xenografts” value is “considerable growth inhibition”.
